Reference: ChEMBL document CHEMBL4837183, “Antiproliferative Bufadienolides from the Bulbs of Drimia altissima” (2021)

Assays:
Type in all cases: functional
[1] = test system: SF-268; assay: Growth inhibition of human SF-268 cells measured after 48 hrs by SRB assay
[2] = test system: SF-295; assay: Growth inhibition of human SF-295 cells measured after 48 hrs by SRB assay
[3] = test system: SF-539; assay: Growth inhibition of human SF-539 cells measured after 48 hrs by SRB assay
[4] = test system: SNB-19; assay: Growth inhibition of human SNB-19 cells measured after 48 hrs by SRB assay
[5] = test system: SNB-75; assay: Growth inhibition of human SNB-75 cells measured after 48 hrs by SRB assay
[6] = test system: U-251; assay: Growth inhibition of human U-251 cells measured after 48 hrs by SRB assay
[7] = test system: A549; assay: Growth inhibition of human A549 cells measured after 48 hrs by SRB assay
[8] = test system: HOP-62; assay: Growth inhibition of human HOP-62 cells measured after 48 hrs by SRB assay
[9] = test system: HOP-92; assay: Growth inhibition of human HOP-92 cells measured after 48 hrs by SRB assay
[10] = test system: NCI-H226; assay: Growth inhibition of human NCI-H226 cells measured after 48 hrs by SRB assay
[11] = test system: NCI-H23; assay: Growth inhibition of human NCI-H23 cells measured after 48 hrs by SRB assay
[12] = test system: NCI-H322M; assay: Growth inhibition of human NCI-H322M cells measured after 48 hrs by SRB assay
[13] = test system: NCI-H460; assay: Growth inhibition of human NCI-H460 cells measured after 48 hrs by SRB assay
[14] = test system: NCI-H522; assay: Growth inhibition of human NCI-H522 cells measured after 48 hrs by SRB assay
[15] = test system: PC-3; assay: Growth inhibition of human PC-3 cells measured after 48 hrs by SRB assay
[16] = test system: DU-145; assay: Growth inhibition of human DU-145 cells measured after 48 hrs by SRB assay
[17] = test system: IGROV-1; assay: Growth inhibition of human IGROV-1 cells measured after 48 hrs by SRB assay
[18] = test system: OVCAR-3; assay: Growth inhibition of human OVCAR-3 cells measured after 48 hrs by SRB assay
[19] = test system: OVCAR-5; assay: Growth inhibition of human OVCAR-5 cells measured after 48 hrs by SRB assay
[20] = test system: OVCAR-8; assay: Growth inhibition of human OVCAR-8 cells measured after 48 hrs by SRB assay
[21] = test system: NCI/ADR-RES; assay: Growth inhibition of human NCI/ADR-RES cells measured after 48 hrs by SRB assay
[22] = test system: SK-OV-3; assay: Growth inhibition of human SK-OV-3 cells measured after 48 hrs by SRB assay
[23] = test system: 786-0; assay: Growth inhibition of human 786-0 cells measured after 48 hrs by SRB assay
[24] = test system: A498; assay: Growth inhibition of human A498 cells measured after 48 hrs by SRB assay
[25] = test system: ACHN; assay: Growth inhibition of human ACHN cells measured after 48 hrs by SRB assay
[26] = test system: CAKI-1; assay: Growth inhibition of human CAKI-1 cells measured after 48 hrs by SRB assay
[27] = test system: RXF 393; assay: Growth inhibition of human RXF 393 cells measured after 48 hrs by SRB assay
[28] = test system: SN12C; assay: Growth inhibition of human SN12C cells measured after 48 hrs by SRB assay
[29] = test system: TK-10; assay: Growth inhibition of human TK-10 cells measured after 48 hrs by SRB assay
[30] = test system: UO-31; assay: Growth inhibition of human UO-31 cells measured after 48 hrs by SRB assay
[31] = test system: CCRF-CEM; assay: Growth inhibition of human CCRF-CEM cells measured after 48 hrs by SRB assay
[32] = test system: HL-60; assay: Growth inhibition of human HL-60 cells measured after 48 hrs by SRB assay
[33] = test system: K562; assay: Growth inhibition of human K562 cells measured after 48 hrs by SRB assay
[34] = test system: MOLT-4; assay: Growth inhibition of human MOLT-4 cells measured after 48 hrs by SRB assay
[35] = test system: SR; assay: Growth inhibition of human SR cells measured after 48 hrs by SRB assay
[36] = test system: COLO 205; assay: Growth inhibition of human COLO 205 cells measured after 48 hrs by SRB assay
[37] = test system: HCC 2998; assay: Growth inhibition of human HCC 2998 cells measured after 48 hrs by SRB assay
[38] = test system: HCT-116; assay: Growth inhibition of human HCT-116 cells measured after 48 hrs by SRB assay
[39] = test system: HCT-15; assay: Growth inhibition of human HCT-15 cells measured after 48 hrs by SRB assay
[40] = test system: HT-29; assay: Growth inhibition of human HT-29 cells measured after 48 hrs by SRB assay
[41] = test system: KM12; assay: Growth inhibition of human KM12 cells measured after 48 hrs by SRB assay
[42] = test system: SW-620; assay: Growth inhibition of human SW-620 cells measured after 48 hrs by SRB assay
[43] = test system: LOX IMVI; assay: Growth inhibition of human LOX IMVI cells measured after 48 hrs by SRB assay
[44] = test system: Malme-3M; assay: Growth inhibition of human Malme-3M cells measured after 48 hrs by SRB assay
[45] = test system: M14; assay: Growth inhibition of human M14 cells measured after 48 hrs by SRB assay
[46] = test system: MDA-MB-435; assay: Growth inhibition of human MDA-MB-435 cells measured after 48 hrs by SRB assay
[47] = test system: SK-MEL-2; assay: Growth inhibition of human SK-MEL-2 cells measured after 48 hrs by SRB assay
[48] = test system: SK-MEL-28; assay: Growth inhibition of human SK-MEL-28 cells measured after 48 hrs by SRB assay
[49] = test system: SK-MEL-5; assay: Growth inhibition of human SK-MEL-5 cells measured after 48 hrs by SRB assay
[50] = test system: UACC-257; assay: Growth inhibition of human UACC-257 cells measured after 48 hrs by SRB assay
[51] = test system: UACC-62; assay: Growth inhibition of human UACC-62 cells measured after 48 hrs by SRB assay
[52] = test system: MCF7; assay: Growth inhibition of human MCF7 cells measured after 48 hrs by SRB assay
[53] = test system: MDA-MB-231; assay: Growth inhibition of human MDA-MB-231 cells measured after 48 hrs by SRB assay
[54] = test system: Hs-578T; assay: Growth inhibition of human Hs-578T cells measured after 48 hrs by SRB assay
[55] = test system: BT-549; assay: Growth inhibition of human BT-549 cells measured after 48 hrs by SRB assay
[56] = test system: T47D; assay: Growth inhibition of human T47D cells measured after 48 hrs by SRB assay
[57] = test system: MDA-MB-468; assay: Growth inhibition of human MDA-MB-468 cells measured after 48 hrs by SRB assay

CC(=O)OC[C@H]1O[C@@H](O[C@@H]2C=C3CC[C@@H]4[C@H]([C@@H](O)C[C@]5(C)[C@@H](c6ccc(=O)oc6)CC[C@]45O)[C@@]3(C)CC2)[C@H](OC(C)=O)[C@@H](OC(C)=O)[C@@H]1OC(C)=O
GI50 [1]: 109 nM
GI50 [2]: 129 nM
GI50 [3]: 77 nM
GI50 [4]: 421 nM
GI50 [5]: 302 nM
GI50 [6]: 295 nM
GI50 [7]: 75 nM
GI50 [8]: 105 nM
GI50 [9]: 286 nM
GI50 [10]: 264 nM
GI50 [11]: 181 nM
GI50 [12]: 114 nM
GI50 [13]: 65 nM
GI50 [14]: 70 nM
GI50 [15]: 247 nM
GI50 [16]: 109 nM
GI50 [17]: 111 nM
GI50 [18]: 92 nM
GI50 [19]: 381 nM
GI50 [20]: 246 nM
GI50 [21]: 283 nM
GI50 [22]: 322 nM
GI50 [23]: 102 nM
GI50 [24]: 64 nM
GI50 [25]: 56 nM
GI50 [26]: 98 nM
GI50 [27]: 41 nM
GI50 [28]: 65 nM
GI50 [29]: 128 nM
GI50 [30]: 92 nM
GI50 [31]: 110 nM
GI50 [32]: 140 nM
GI50 [33]: 386 nM
GI50 [34]: 88 nM
GI50 [35]: 285 nM
GI50 [36]: 629 nM
GI50 [37]: 677 nM
GI50 [38]: 75 nM
GI50 [39]: 225 nM
GI50 [40]: 321 nM
GI50 [41]: 597 nM
GI50 [42]: 114 nM
GI50 [43]: 314 nM
GI50 [44]: 105 nM
GI50 [45]: 416 nM
GI50 [46]: 290 nM
GI50 [47]: 362 nM
GI50 [48]: 273 nM
GI50 [49]: 95 nM
GI50 [50]: 376 nM
GI50 [51]: 155 nM
GI50 [52]: 103 nM
GI50 [53]: 812 nM
GI50 [54]: 91 nM
GI50 [55]: 93 nM
GI50 [56]: 338 nM
GI50 [57]: 642 nM

C[C@]12CC[C@H](O)C=C1CC[C@@H]1[C@@H]2[C@@H](O)C[C@]2(C)[C@@H](c3ccc(=O)oc3)CC[C@]12O
GI50 [1]: 538 nM
GI50 [2]: 660 nM
GI50 [3]: 577 nM
GI50 [4]: 3860 nM
GI50 [5]: 1170 nM
GI50 [6]: 1280 nM
GI50 [7]: 353 nM
GI50 [8]: 454 nM
GI50 [9]: 2080 nM
GI50 [10]: 1760 nM
GI50 [11]: 664 nM
GI50 [12]: 1230 nM
GI50 [13]: 365 nM
GI50 [14]: 377 nM
GI50 [15]: 1330 nM
GI50 [16]: 478 nM
GI50 [17]: 1820 nM
GI50 [18]: 531 nM
GI50 [19]: 2360 nM
GI50 [20]: 780 nM
GI50 [21]: 657 nM
GI50 [22]: 2670 nM
GI50 [23]: 541 nM
GI50 [24]: 362 nM
GI50 [25]: 351 nM
GI50 [26]: 436 nM
GI50 [27]: 298 nM
GI50 [28]: 468 nM
GI50 [29]: 750 nM
GI50 [30]: 653 nM
GI50 [31]: 588 nM
GI50 [32]: 563 nM
GI50 [33]: 1390 nM
GI50 [34]: 369 nM
GI50 [35]: 1100 nM
GI50 [36]: 3400 nM
GI50 [37]: 4320 nM
GI50 [38]: 399 nM
GI50 [39]: 808 nM
GI50 [40]: 689 nM
GI50 [41]: 3200 nM
GI50 [42]: 559 nM
GI50 [43]: 1030 nM
GI50 [44]: 1260 nM
GI50 [45]: 2570 nM
GI50 [46]: 1800 nM
GI50 [47]: 2330 nM
GI50 [48]: 2970 nM
GI50 [49]: 703 nM
GI50 [50]: 2630 nM
GI50 [51]: 1760 nM
GI50 [52]: 473 nM
GI50 [53]: 5420 nM
GI50 [54]: 337 nM
GI50 [55]: 371 nM
GI50 [56]: 1540 nM
GI50 [57]: 3750 nM
